Measurements: patent publication US20250263370A1 (Tay Therapeutics Limited, priority 2022, published 2025)
Several values for one entry are separate records, joined by “and”; a condition that tells them apart may be missing. Equal entries are not always repeated. Entries after “also recorded” stand apart in the source; their conditions may differ.

Tests used:
[1] = system: renal fibrosis; assay: Unilateral Urethral Obstruction (UUO) renal fibrosis model in rats: body weight, clinical observations, histopathology scores, serum urea, hydroxyproline; assay type: in vivo, rat; design: Glomerulosclerosis score / Interstitial nephritis score / Collagen fiber deposition score / Nephropathy score / Total score: scale not given here; details: for Clinical Observation: — = no observation
Excerpt: Unilateral Urethral Obstruction (UUO) is a complex model of renal fibrosis (RF) disease. RF is a common outcome in progressive chronic kidney diseases, characterized by excessive formation of internal scar tissue. Surgical obstruction of urine flow can be used to trigger this disease in rodents. The UUO model allows for evaluation of potential drugs as treatment for RF.
Experimental groups for the study are outlined in Table 10. […] Briefly, animals were anesthetized using a Zoletil/Xylazine mixture (20:1, v:v) for a final dose of 25 mg/kg. The operation area was disinfected with 75% alcohol before shaving. Rats in UUO group were exposed left ureter through a small incision on the left side of the abdomen and ligated with 3-0 silk at two locations about 0.5 cm below the renal hilum. The ureters of sham rats in Group 1 were manipulated but not ligated.
Starting on Day 0, animals in group 2 were administered daily doses of the vehicle for 14 days.
Clinical signs for all animals were monitored and recorded daily. Blind clinical nephropathy scores were conducted for all animals in the study. Glomerulosclerosis, interstitial nephritis, collagen fiber deposition, nephropathy were each assessed for all experimental rats, and a total clinical score was determined for each rat. The scoring system represented the degree or percentage of lesions in the whole kidney. Clinical score assessments were performed on Day 14.
Serum for blood biochemistry analysis was collected into centrifuge tubes without coagulant four hours after final dosing. Blood plasma samples from group 3 was collected into tubes with K2EDTA four hours after final dosing. At the conclusion of the study (end of the 14-day period), animals were euthanized. Kidney tissue was collected four hours after final dosing. Ligated side kidney was divided into three copies ⅓ fix into 10% formalin for H&E analysis, ⅓ into RNA for PCR analysis of tissue biomarkers Col1a1, TGF-b1, MCP-1, IL-1b, IL-6, IL-17, TNF-a, and Timp1, and ⅓ for hydroxyproline assay analyzed by ELISA. RNA was extracted from tissue using the RNeasy mini kit (Qiagen). RNA concentration was measured using a NanoDrop One Spectrophotometer (ThermoFisher) and converted to cDNA using a High-Capacity RNA-to-cDNA kit (Invitrogen). RT-PCR was performed to measure levels of mRNA of different targets using TaqMan® Gene Expression Master Mix and TaqMan® probe/primer sets on a QuantStudio 6, Real-Time PCR System (ThermoFisher). Fold change in target gene expression was determined using the ΔΔCt method.

[2] = Sprague-Dawley rat pharmacokinetics, IV and PO cassette dosing; assay type: in vivo
Summary of the method: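 Male Sprague-Dawley rats (2 per arm) given up to 5 compounds in cassette, 1 mg/kg IV and 5 mg/kg PO, formulated in 5% DMSO/40% PEG-400/55% water. Plasma from serial blood samples was acetonitrile-precipitated and analysed by LC/MS/MS against matrix-matched standard curves.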

[3] = 30 mg/kg BID for 14 days (group 3)
[4] = Example 101 30 mg/kg, individual animals, histopathology score

CNC(=O)c1[nH]c(C(=O)NC2CCC2)cc1O[C@@H](C)c1ccccc1 (stereo in doubt) [Example 101, N^5-cyclobutyl-N^2-methyl-3-(1-phenylethoxy)-1H-pyrrole-2,5-dicarboxamide]
overall effect in UUO / renal fibrosis ([1]; 30 mg/kg): ameliorates clinical symptoms associated with UUO; also recorded: surprisingly effective against renal fibrosis and renal fibrosis-related conditions
animals that exhibited diarrhea in addition to soft stools [1, 3]: One animal
animals that exhibited dirty anuses [1, 3]: Three animals
body weight over the 14-day study [1, 3]: slight weight loss over the first seven days of the study, and then gained weight over the remaining seven days
rats that exhibited soft stools during the study [1, 3]: Four
level of collagen fiber deposition relative to UUO + vehicle ([1]; 30 mg/kg BID, Day 14): reduced
level of interstitial nephritis relative to UUO + vehicle ([1]; 30 mg/kg BID, Day 14): reduced
level of nephropathy relative to UUO + vehicle ([1]; 30 mg/kg BID, Day 14): reduced
pathology staining of kidney (FIG. 13B) ([1]; 30 mg/kg BID, Day 14): mild interstitial nephritis with neutrophil and lymphocyte infiltration, degeneration and necrosis of renal tubular epithelial cells, and high tubular dilatation
total clinical scores relative to UUO + vehicle ([1]; 30 mg/kg BID, Day 14): reduced
serum urea levels between the three experimental groups ([1]; 30 mg/kg BID, four hours after final dosing): No significant differences
hydroxyproline levels between the three experimental groups ([1]; 30 mg/kg BID, kidney tissue): No significant differences
Body weight ([1]; 30 mg/kg, Day 0, individual animals): 324 g and 307 g and 295 g and 302 g and 285 g and 297 g and 294 g and 306 g
Body weight ([1]; 30 mg/kg, Day 1, individual animals): 293 g and 284 g (2×) and 277 g (2×) and 279 g and 276 g and 302 g
Body weight ([1]; 30 mg/kg, Day 2, individual animals): 299 g (2×) and 274 g (3×) and 275 g and 273 g and 303 g
Body weight ([1]; 30 mg/kg, Day 3, individual animals): 306 g and 266 g and 267 g and 274 g (2×) and 278 g and 304 g and 305 g
Body weight ([1]; 30 mg/kg, Day 4, individual animals): 315 g and 259 g and 262 g and 276 g and 283 g and 277 g and 309 g and 312 g
Body weight ([1]; 30 mg/kg, Day 5, individual animals): 310 g and 263 g and 254 g and 282 g and 284 g and 279 g and 302 g and 315 g
Body weight ([1]; 30 mg/kg, Day 6, individual animals): 323 g and 265 g and 258 g and 286 g and 285 g and 284 g and 304 g and 321 g
Body weight ([1]; 30 mg/kg, Day 7, individual animals): 322 g and 270 g and 258 g and 297 g and 289 g and 287 g and 307 g and 324 g
Body weight ([1]; 30 mg/kg, Day 8, individual animals): 322 g and 271 g and 260 g and 296 g
Body weight ([1]; 30 mg/kg, Day 9, individual animals): 331 g and 276 g and 264 g and 303 g
Body weight ([1]; 30 mg/kg, Day 10, individual animals): 330 g and 277 g and 261 g and 311 g
Body weight ([1]; 30 mg/kg, Day 11, individual animals): 327 g and 275 g and 265 g and 297 g
Body weight ([1]; 30 mg/kg, Day 12, individual animals): 318 g and 285 g and 260 g and 291 g
Body weight ([1]; 30 mg/kg, Day 13, individual animals): 328 g and 283 g and 276 g and 304 g
Body weight ([1]; 30 mg/kg, Day 14, individual animals): 334 g and 286 g and 271 g and 313 g
Body weight ([1]; 30 mg/kg, Day −1, individual animals): 306 g and 287 g and 299 g and 295 g and 281 g and 285 g and 296 g and 301 g
Serum Urea Mean ± SD ([1]; 30 mg/kg, group mean): 5.85 ± 0.69 mmol/L
Serum Urea ([1]; 30 mg/kg, individual animals): 4.95 mmol/L and 6.04 mmol/L and 6.62 mmol/L and 5.01 mmol/L and 5.28 mmol/L and 6.26 mmol/L and 5.90 mmol/L and 6.70 mmol/L
Collagen fiber deposition score [1, 4]: 2 (2×) and 1 (6×)
Glomerulosclerosis score [1, 4]: 0
Interstitial nephritis score [1, 4]: 3 (5×) and 2 (3×)
Nephropathy score [1, 4]: 2 (2×) and 1 (6×)
Total score ([1]; Example 101 30 mg/kg, individual animals, sum of histopathology scores): 7 (2×) and 5 (3×) and 4 (3×)
Body weight, Mean ± SD ([1]; group 3, Day 0, group mean): 301 g
Body weight, Mean ± SD ([1]; group 3, Day 1, group mean): 284 g
Body weight, Mean ± SD ([1]; group 3, Day 2, group mean): 284 g
Body weight, Mean ± SD ([1]; group 3, Day 3, group mean): 284 g
Clinical Observation ([1]; group 3, Day 3, individual animals): diarrhea
Body weight, Mean ± SD ([1]; group 3, Day 4, group mean): 287 g
Body weight, Mean ± SD ([1]; group 3, Day 5, group mean): 286 g
Clinical Observation ([1]; group 3, Day 5, individual animals): Anal
Body weight, Mean ± SD ([1]; group 3, Day 6, group mean): 291 g
Clinical Observation ([1]; group 3, Day 6, individual animals): Anal
Body weight, Mean ± SD ([1]; group 3, Day 7, group mean): 294 g
Clinical Observation ([1]; group 3, Day 7, individual animals): Anal
Body weight, Mean ± SD ([1]; group 3, Day 8, group mean): 296 g
Clinical Observation ([1]; group 3, Day 8, individual animals): soft
Body weight, Mean ± SD ([1]; group 3, Day 9, group mean): 300 g
Clinical Observation ([1]; group 3, Day 9, individual animals): soft
Body weight, Mean ± SD ([1]; group 3, Day 10, group mean): 303 g
Clinical Observation ([1]; group 3, Day 10, individual animals): soft
Body weight, Mean ± SD ([1]; group 3, Day 11, group mean): 306 g
Body weight, Mean ± SD ([1]; group 3, Day 12, group mean): 304 g
Body weight, Mean ± SD ([1]; group 3, Day 13, group mean): 312 g
Clinical Observation ([1]; group 3, Day 13, individual animals): soft
Body weight, Mean ± SD ([1]; group 3, Day 14, group mean): 314 g
Clinical Observation ([1]; group 3, Day 14, individual animals): Anal (2×) and soft
Body weight, Mean ± SD ([1]; group 3, Day −1, group mean): 294 g
Final Hydroxyproline Con., Mean ([1]; group mean): 0.65 μg/mg tissue
Final Hydroxyproline Con. ([1]; individual animals): 0.72 μg/mg tissue (2×) and 0.69 μg/mg tissue and 0.64 μg/mg tissue and 0.60 μg/mg tissue and 0.66 μg/mg tissue and 0.58 μg/mg tissue and 0.55 μg/mg tissue
PO F ([2]; PO 5 mg/kg, Method 1): 66%
half-life ([2]; male, Sprague-Dawley, rat, plasma, iv, 1 mg/kg, IV 1 mg/kg, Method 1, read-out: IV T1/2 (converted)): 54 min
